Test results reported in PMC4666608, “Metabolic Profiling of Chicken Embryos Exposed to Perfluorooctanoic Acid (PFOA) and Agonists to Peroxisome Proliferator-Activated Receptors” (PLoS ONE, 2015).
Marks after values point to notes of the source that are not given here.

Test system: chicken embryos
Experiment: Metabolic profiling of allantoic fluid (GC-MS, LC-MS, OPLS-DA)
Format: in vivo, Gallus gallus domesticus
Settings: for Mean concentration relative to control, feature Win004_C08 / Mean concentration relative to control, feature Win005_C07 / Mean concentration relative to control, feature Win008_C06 / Mean concentration relative to control, feature Win022_C01 / Mean concentration relative to control, feature Win023_C06 / Mean concentration relative to control, feature win006_C01 / Mean concentration relative to control, feature Win008_C07 / Mean concentration relative to control, feature Win023_C03 / Mean concentration relative to control, feature Win007_C09 / Mean concentration relative to control, feature Win008_C05 / Mean concentration relative to control, feature Win018_C04 / Mean concentration relative to control, feature Win007_C03 / Mean concentration relative to control, feature Win042_C02 / Mean concentration relative to control, feature Win009_C03 / Mean concentration relative to control, feature Win008_C04 / Mean concentration relative to control, feature Win005_C03 / Mean concentration relative to control, feature Win013_C05: GC; for Mean concentration relative to control, feature Win008_C07: tentative 1-Aminocyclopropanecarboxylic acid; for Mean concentration relative to control, feature Win023_C03: tentative 2-Oxoglutaric acid; for Mean concentration relative to control, feature Win007_C09 / Mean concentration relative to control, feature Win008_C05: tentative 2-Oxovaleric acid; for Mean concentration relative to control, feature Win018_C04: tentative 3-Amino-2-piperidone; for Mean concentration relative to control, feature Win007_C03: tentative 3-Hydroxybutanoic acid; for Mean concentration relative to control, feature Win042_C02: tentative Cystathionine; for Mean concentration relative to control, feature Win009_C03: tentative Ketoleucine; for Mean concentration relative to control, feature Win008_C04: tentative Malonic acid; for Mean concentration relative to control, feature Win005_C03: tentative Oxalic acid; for Mean concentration relative to control, feature Win013_C05: tentative Succinic acid
Description: Controls were injected with 20 μL vehicle only (DMSO).
Plasma was collected and stored at -70°C.
Metabolites in allantoic fluid and blood plasma were analyzed using gas chromatography-mass spectrometry (GC-MS) and liquid chromatography-mass spectrometry (LC-MS) as described in S1 Methods. Prior to GC-MS and LC-MS analysis, allantoic fluid (100 μL) and blood plasma (50 μL) were extracted. To each sample, 900 μL (allantoic fluid) or 450 μL (blood plasma) of extraction buffer (90/10 v/v methanol:water) including all internal standards were added. Standards for GC-MS were proline, succinic acid, glutamic acid, salicylic acid, alpha-ketoglutarate, putrescine, myristic acid, hexadecanoic acid, cholesterol, and sucrose. Standards for LC-MS were Val-Tyr-Val, Leu-enkephalin, sulfadimethoxine and reserpine. Samples were homogenized by shaking in a bead mill at a frequency of 30 Hz for 3 minutes and proteins were precipitated at +4°C on ice. The samples were centrifuged at +4°C, 14000 rpm, for 10 min. Then, 200 μL supernatant was transferred to a GC microvial and 200 μL was transferred to an LC microvial, and solvents were evaporated. Samples from the four replicate experiments were analyzed using in chronological order and within each replicate experiment the run order of the individual samples was randomized.
Multivariate statistical analyses of metabolite profiles were performed using the software package SIMCA-P version 13.0 (Umetrics, Umeå, Sweden). Data was centered and scaled to variance 1 (UV scaling) prior to modelling. To reduce unintended systematic variation caused by sample processing and instrument drift, GC-MS and LC-MS metabolite amounts (expressed as the area under the chromatographic peak) were normalized by Orthogonal Partial Least Squares analysis (O2PLS) prior to multivariate data analysis. O2PLS finds common (predictive) and unique (orthogonal) variation in two data matrices. If applied to find the common variation between the data matrix containing the measured metabolite concentrations and a matrix containing only the internal standards, the only common (predictive) variation expected is due to the unintended systematic variation. By deleting the contribution of the predictive latent variables, that variation can be removed from the data. Models obtained after this normalization contain in general less latent variables, and this simplification helps when deciding on the number of latent variables to be used. Following normalization, GC-MS and LC-MS data were analyzed together. Initially, a global Principal Component Analysis (PCA) was performed to get an overview of groups and trends and to identify outliers. Projections to latent structures by means of Orthogonal Partial Least Squares Discriminant Analysis (OPLS-DA) was used to model the relationship between the X-matrix (metabolite concentrations) and the Y matrix (class, i.e. exposure group or sex), and to find x-variables that were related to class belonging. OPLS-DA is a supervised prediction and regression method that rotates the projection plane to find the maximum covariance between the data and the class assignment. All groups were first analyzed together in a 5-class OPLS-DA and then each exposure group was analyzed against the control group in a 2-class OPLS-DA. Sex differences were analyzed both using the whole data set and in each group separately using 2-class OPLS-DA, with females and males as the two classes. Only variables with 80% or more nonzero values were included in the statistical models. […] The validity of each model was also checked using CV-ANOVA (ANOVA of the cross-validated residuals). A significance level of p < 0.05 was used. For each model, R ^2 X, R ^2 Y and Q ^2 values were calculated, where R ^2 X is a measure of the fraction of x variation modeled in the extracted latent variables, R ^2 Y is a measure of the fraction of y variation modeled and Q ^2 is an estimate of the predictive ability of the model and is calculated by cross-validation. […]

O=C(O)C(F)(F)C(F)(F)C(F)(F)C(F)(F)C(F)(F)C(F)(F)C(F)(F)F [PFOA, perfluorooctanoic acid]
0.6*: Mean concentration relative to control, feature 176.0952@1.3890611 (LC, PFOA 50 μg/egg)
1.2: Mean concentration relative to control, feature Win008_C06 (PFOA 250 μg/egg) | Mean concentration relative to control, feature 134.0239@1.1350567 (LC, PFOA 50 μg/egg)
1.3: Mean concentration relative to control, feature Win042_C02 (PFOA 250 μg/egg)
0.8: Mean concentration relative to control, feature Win023_C06 (PFOA 50 μg/egg) | Mean concentration relative to control, feature 270.0441@1.1407775 (LC, PFOA 50 μg/egg) | Mean concentration relative to control, feature 305.1684@5.2955093 (LC, PFOA 50 μg/egg) | Mean concentration relative to control, feature 394.167@3.9552917 (LC, PFOA 50 μg/egg)
1.1: Mean concentration relative to control, feature Win008_C07 (PFOA 50 μg/egg) | Mean concentration relative to control, feature Win042_C02 (PFOA 50 μg/egg) | Mean concentration relative to control, feature Win008_C04 (PFOA 50 μg/egg) | Mean concentration relative to control, feature Win022_C01 (PFOA 250 μg/egg) | Mean concentration relative to control, feature Win023_C06 (PFOA 250 μg/egg) | Mean concentration relative to control, feature Win023_C03 (PFOA 250 μg/egg) | Mean concentration relative to control, feature Win018_C04 (PFOA 250 μg/egg) | Mean concentration relative to control, feature Win008_C04 (PFOA 250 μg/egg) | Mean concentration relative to control, feature Win013_C05 (PFOA 250 μg/egg) | Mean concentration relative to control, feature 214.016@2.1190732 (LC, PFOA 50 μg/egg) | Mean concentration relative to control, feature 288.1166@2.9551322 (LC, PFOA 50 μg/egg) | Mean concentration relative to control, feature 289.173@7.5030584 (LC, PFOA 50 μg/egg)
0.9: Mean concentration relative to control, feature Win009_C03 (PFOA 50 μg/egg) | Mean concentration relative to control, feature Win005_C03 (PFOA 50 μg/egg) | Mean concentration relative to control, feature Win005_C03 (PFOA 250 μg/egg) | Mean concentration relative to control, feature 178.0428@1.7582192 (LC, PFOA 50 μg/egg) | Mean concentration relative to control, feature 189.1159@1.9209185 (LC, PFOA 50 μg/egg) | Mean concentration relative to control, feature 241.0551@2.3510706 (LC, PFOA 50 μg/egg) | Mean concentration relative to control, feature 325.1114@2.1190624 (LC, PFOA 50 μg/egg) | Mean concentration relative to control, feature 325.1115@2.3554378 (LC, PFOA 50 μg/egg) | Mean concentration relative to control, feature 333.1335@2.8639288 (LC, PFOA 50 μg/egg) | Mean concentration relative to control, feature 333.2005@6.5291867 (LC, PFOA 50 μg/egg) | Mean concentration relative to control, feature 337.1651@1.8737898 (LC, PFOA 50 μg/egg) | Mean concentration relative to control, feature 344.1424@2.348947 (LC, PFOA 50 μg/egg) | Mean concentration relative to control, feature 349.1651@2.4087605 (LC, PFOA 50 μg/egg) | Mean concentration relative to control, feature 357.1997@6.9691257 (LC, PFOA 50 μg/egg) | Mean concentration relative to control, feature 375.1819@3.672254 (LC, PFOA 50 μg/egg)
0.8*: Mean concentration relative to control, feature 245.1563@2.2907295 (LC, PFOA 50 μg/egg) | Mean concentration relative to control, feature 305.1682@5.353517 (LC, PFOA 50 μg/egg)
1.0: Mean concentration relative to control, feature Win004_C08 (PFOA 50 μg/egg) | Mean concentration relative to control, feature Win005_C07 (PFOA 50 μg/egg) | Mean concentration relative to control, feature Win008_C06 (PFOA 50 μg/egg) | Mean concentration relative to control, feature Win022_C01 (PFOA 50 μg/egg) | Mean concentration relative to control, feature win006_C01 (PFOA 50 μg/egg) | Mean concentration relative to control, feature Win023_C03 (PFOA 50 μg/egg) | Mean concentration relative to control, feature Win007_C09 (PFOA 50 μg/egg) | Mean concentration relative to control, feature Win008_C05 (PFOA 50 μg/egg) | Mean concentration relative to control, feature Win018_C04 (PFOA 50 μg/egg) | Mean concentration relative to control, feature Win007_C03 (PFOA 50 μg/egg) | Mean concentration relative to control, feature Win013_C05 (PFOA 50 μg/egg) | Mean concentration relative to control, feature Win004_C08 (PFOA 250 μg/egg) | Mean concentration relative to control, feature Win005_C07 (PFOA 250 μg/egg) | Mean concentration relative to control, feature win006_C01 (PFOA 250 μg/egg) | Mean concentration relative to control, feature Win008_C07 (PFOA 250 μg/egg) | Mean concentration relative to control, feature Win007_C09 (PFOA 250 μg/egg) | Mean concentration relative to control, feature Win008_C05 (PFOA 250 μg/egg) | Mean concentration relative to control, feature Win007_C03 (PFOA 250 μg/egg) | Mean concentration relative to control, feature Win009_C03 (PFOA 250 μg/egg) | Mean concentration relative to control, feature 145.0538@3.072527 (LC, PFOA 50 μg/egg) | Mean concentration relative to control, feature 147.0328@3.0722888 (LC, PFOA 50 μg/egg) | Mean concentration relative to control, feature 160.0323@1.1950632 (LC, PFOA 50 μg/egg) | Mean concentration relative to control, feature 173.0488@3.0734746 (LC, PFOA 50 μg/egg) | Mean concentration relative to control, feature 180.0048@4.421465 (LC, PFOA 50 μg/egg) | Mean concentration relative to control, feature 197.0639@2.1181405 (LC, PFOA 50 μg/egg) | Mean concentration relative to control, feature 201.012@3.046474 (LC, PFOA 50 μg/egg) | Mean concentration relative to control, feature 202.0429@2.9548414 (LC, PFOA 50 μg/egg) | Mean concentration relative to control, feature 205.0533@4.421879 (LC, PFOA 50 μg/egg) | Mean concentration relative to control, feature 226.0107@4.421457 (LC, PFOA 50 μg/egg) | Mean concentration relative to control, feature 236.0816@3.0720985 (LC, PFOA 50 μg/egg) | Mean concentration relative to control, feature 243.1118@2.1537287 (LC, PFOA 50 μg/egg) | Mean concentration relative to control, feature 244.9972@4.421603 (LC, PFOA 50 μg/egg) | Mean concentration relative to control, feature 250.0981@3.072492 (LC, PFOA 50 μg/egg) | Mean concentration relative to control, feature 262.0978@2.7961144 (LC, PFOA 50 μg/egg) | Mean concentration relative to control, feature 263.0855@2.2847009 (LC, PFOA 50 μg/egg) | Mean concentration relative to control, feature 278.0928@3.0723689 (LC, PFOA 50 μg/egg) | Mean concentration relative to control, feature 279.1248@2.796395 (LC, PFOA 50 μg/egg) | Mean concentration relative to control, feature 280.1425@2.730277 (LC, PFOA 50 μg/egg) | Mean concentration relative to control, feature 289.1012@3.249983 (LC, PFOA 50 μg/egg) | Mean concentration relative to control, feature 294.1242@2.3692534 (LC, PFOA 50 μg/egg) | Mean concentration relative to control, feature 302.0508@3.0722616 (LC, PFOA 50 μg/egg) | Mean concentration relative to control, feature 308.073@4.4211636 (LC, PFOA 50 μg/egg) | Mean concentration relative to control, feature 310.1181@1.5090439 (LC, PFOA 50 μg/egg) | Mean concentration relative to control, feature 316.0389@3.0725708 (LC, PFOA 50 μg/egg) | Mean concentration relative to control, feature 320.0626@3.0729218 (LC, PFOA 50 μg/egg) | Mean concentration relative to control, feature 335.1866@4.508565 (LC, PFOA 50 μg/egg) | Mean concentration relative to control, feature 348.0553@3.0730357 (LC, PFOA 50 μg/egg) | Mean concentration relative to control, feature 371.1513@3.0009465 (LC, PFOA 50 μg/egg) | Mean concentration relative to control, feature 414.1482@2.118972 (LC, PFOA 50 μg/egg)
